Assay results reported in the NIST ThermoML archive (doi:10.1021/je200327s).
± gives the expanded uncertainty stated by the source. One block for each compound: values may come before it.

Legend:
[1] = 101.3 kPa, Liquid, Vibrating tube method
[2] = xn = mol fraction of the nth substance listed; details: 101 kPa, Liquid, Vibrating tube method

mass density ([1]; 298.2 K): 698.569 ± 1.4 kg/m3
mass density ([1]; 313.2 K): 686.365 ± 1.3 kg/m3
Compound: CCCCCCCC [octane]

mass density ([1]; 298.2 K): 745.15 ± 0.24 kg/m3
mass density ([1]; 313.2 K): 734.325 ± 0.24 kg/m3
Compound: CCCCCCCCCCCC [dodecane]

mass density ([1]; 298.2 K): 679.857 ± 0.36 kg/m3
Compound: CCCCCCC [heptane]

mass density ([1]; 298.2 K): 726.1 ± 0.4 kg/m3
mass density ([1]; 313.2 K): 714.726 ± 0.35 kg/m3
Compound: CCCCCCCCCC [decane]

mass density ([1]; 298.2 K): 736.786 ± 0.34 kg/m3
mass density ([1]; 313.2 K): 725.693 ± 0.35 kg/m3
Compound: CCCCCCCCCCC [undecane]

mass density ([1]; 298.2 K): 713.938 ± 0.36 kg/m3
Compound: CCCCCCCCC [nonane]

Continued, compound first:

Compound: CCCCCC [hexane]
mass density ([1]; 298.2 K): 655.039 ± 2.1 kg/m3

Compound: CCCCC [pentane]
mass density ([1]; 298.2 K): 624.932 ± 0.3 kg/m3

Compound: Cc1cccc2c1sc1ccccc12 [4-methyldibenzothiophene] + CCCCCCCCCCCC
mass density ([2]; 298.2 K, x1 = 0.0062): 747.197 ± 0.24 kg/m3
mass density ([2]; 298.2 K, x1 = 0.012): 749.098 ± 0.24 kg/m3
mass density ([2]; 298.2 K, x1 = 0.018): 751.069 ± 0.24 kg/m3
mass density ([2]; 298.2 K, x1 = 0.0242): 753.104 ± 0.25 kg/m3
mass density ([2]; 298.2 K, x1 = 0.0302): 755.131 ± 0.25 kg/m3
mass density ([2]; 298.2 K, x1 = 0.0526): 762.606 ± 0.26 kg/m3
mass density ([2]; 298.2 K, x1 = 0.0863): 774.082 ± 0.28 kg/m3
mass density ([2]; 298.2 K, x1 = 0.133): 790.24 ± 0.32 kg/m3
mass density ([2]; 313.2 K, x1 = 0.0062): 736.26 ± 0.25 kg/m3
mass density ([2]; 313.2 K, x1 = 0.012): 738.169 ± 0.25 kg/m3
mass density ([2]; 313.2 K, x1 = 0.018): 740.129 ± 0.25 kg/m3
mass density ([2]; 313.2 K, x1 = 0.0242): 742.156 ± 0.25 kg/m3
mass density ([2]; 313.2 K, x1 = 0.0302): 744.204 ± 0.25 kg/m3
mass density ([2]; 313.2 K, x1 = 0.0526): 751.621 ± 0.26 kg/m3
mass density ([2]; 313.2 K, x1 = 0.0863): 763.057 ± 0.28 kg/m3
mass density ([2]; 313.2 K, x1 = 0.133): 777.581 ± 0.32 kg/m3
mass density ([2]; 313.2 K, x1 = 0.2685): 827.245 ± 0.51 kg/m3

Compound: C1CCCCC1 [cyclohexane]
mass density ([1]; 298.2 K): 773.849 ± 0.27 kg/m3

Compound: CC(C)CC(C)(C)C [2,2,4-trimethylpentane]
mass density ([1]; 298.2 K): 687.721 ± 0.28 kg/m3
mass density ([1]; 313.2 K): 675.225 ± 0.29 kg/m3

Compound: Cc1cccc2c1sc1c(C)cccc12 [4,6-dimethyldibenzo[b,d]thiophene] + CCCCCCCCCCCC
mass density ([2]; 298.2 K, x1 = 0.0031): 746.102 ± 0.24 kg/m3
mass density ([2]; 298.2 K, x1 = 0.0053): 746.82 ± 0.24 kg/m3
mass density ([2]; 298.2 K, x1 = 0.0076): 747.546 ± 0.24 kg/m3
mass density ([2]; 313.2 K, x1 = 0.0031): 735.193 ± 0.24 kg/m3
mass density ([2]; 313.2 K, x1 = 0.0053): 735.931 ± 0.24 kg/m3
mass density ([2]; 313.2 K, x1 = 0.0076): 736.664 ± 0.24 kg/m3
